Residues, ends and D or L forms follow the SMILES beside them. *: point of attachment. Palmitoyl = CCCCCCCCCCCCCCCC(=O)*
Settings: 3 hours

SMILES	stability of thioesters during acidolytic removal of tert-butyloxy functions and/or cleavage of the resin-peptide bond
CCCCCCCCCCCCCCCC(=O)SC[C@H](NC(C)=O)C(=O)N[C@@H](CO)C(=O)N[C@@H](CCC(=O)O)C(=O)N[C@H](C(=O)N[C@@H](Cc1ccccc1)C(=O)N[C@@H](CCCNC(=N)N)C(=O)N1CCC[C@H]1C(=O)NCC(=O)NCC(=O)NCC(=O)N[C@@H](CC(=O)O)C(=O)N[C@@H](CCSC)C(=O)N[C@@H](CCCNC(=N)N)C(N)=O)[C@@H](C)CC [Ac-C(palm)SEIFRPGGGDMR-NH2] (Ac-C(Palmitoyl)SEIFRPGGGDMR-NH2)	stable under all these acidic conditions
CCCCCCCCCCCCCCCC(=O)SC[C@H](NC(C)=O)C(=O)N[C@H](C(=O)N[C@@H](C)C(=O)N[C@H](C(=O)N[C@@H](CCC(N)=O)C(=O)N[C@@H](CC(C)C)C(=O)N1CCC[C@H]1C(=O)N[C@@H](C)C(=O)N[C@@H](CO)C(=O)N[C@@H](Cc1ccccc1)C(N)=O)[C@@H](C)O)C(C)C [Ac-C(palm)VATQLPASF-NH2] (Ac-C(Palmitoyl)VATQLPASF-NH2)	stable under all these acidic conditions

— patent EP0912195B1, “VACCINE COMPRISING ANTIGENS BOUND TO CARRIERS THROUGH LABILE BONDS” (PEPSCAN SYSTEMS B.V., priority 1996, dated 1997)
